{
  "source": "patent US20250319118A1",
  "about": "“Prophylaxis and Treatment of Degraded Cartilage” (PhrixionLS, LLC, priority 2022, published 2025)",
  "origin": "cited, not measured here",
  "key": {"[1]": {"test_system": "osteoarthritis", "details": "for Limitations: clinical outcomes / OA symptoms: clinical trials, osteoarthritis"}, "[2]": {"test_system": "osteoarthritis", "details": "viscosupplementation"}},
  "data": [
    {"molecule": "C[C@H]1CN(C(=O)CC[C@@]2(C3CC3)NC(=O)NC2=O)CCN1c1cc(F)cc(F)c1", "note": "[GLPG1972, reference compound]", "values": [
      {"measurement": "Efficacy versus placebo", "setting": "[1]; Phase-2 study", "result": "No significant difference versus"}
    ]},
    {"molecule": "C[S+](CC[C@H](N)C(=O)[O-])C[C@H]1O[C@@H](n2cnc3c(N)ncnc32)[C@H](O)[C@@H]1O", "note": "(some centres unmarked) [S-adenosyl-methionine (SAMe), S-adenosyl-methionine]", "values": [
      {"measurement": "Limitations: clinical outcomes / OA symptoms", "setting": "[1]; literature summary", "result": "Shown to improve OA symptoms,"}
    ]},
    {"molecule": "Bromelain", "values": [
      {"measurement": "Limitations: clinical outcomes / OA symptoms", "setting": "[1]; literature summary", "result": "Mixed results in clinical trials,"}
    ]},
    {"molecule": "hyaluronic acid [HA]", "values": [
      {"measurement": "Benefit compared to placebo", "setting": "[2]", "result": "no significant benefit compared to placebo"}
    ]},
    {"molecule": "Sprifermin: Drug (Trial), investigated as disease-modifier for cartilage damage (protein, UniProt O76093 28-207, looked up) Fibroblast growth factor 18: EENVDFRIHVENQTRARDDVSRKQLRLYQLYSRTSGKHIQVLGRRISARGEDGDKYAQLLVETDTFGSQVRIKGKETEFYLCMNRKGKLVGKPDGTSKECVFIEKVLENNYTALMSAKYSGWYVGFTKKGRPRKGPKTRENQQDVHFMKRYPKGQPELQKPFKYTTVTKRSRRIRPTHPA", "values": [
      {"measurement": "Limitations: effect on cartilage (regeneration / protection)", "setting": "[1]; clinical and preclinical data, literature summary", "result": "Demonstrated positive effects"}
    ]}
  ]
}
